# Results reported in US20260262643A1, “HERBICIDAL BENZOXAZINES” (FMC CORPORATION, priority 2022, published 2026).
# What was measured:
# barnyardgrass [1] = assay: Test C preemergence; format: in vivo, Echinochloa crusgalli
# Outline: (§1)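 Soil-applied (pre) and foliar (post, 1–2 leaf, 2–10 cm) sprays; surfactant-containing non-phytotoxic solvent vehicle; loam/sand substrate. Readout: visual % control at 10 d, greenhouse, versus untreated.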
# ryegrass, Italian [2] = assay: Test C preemergence; format: in vivo, Lolium multiflorum
# Outline: as §1
# barnyardgrass [3] = assay: Test D flooded paddy test; format: in vivo, Echinochloa crus-galli; conditions: 250 g ai/ha, applied to paddy water, visual rating after 13 to 14 days, scale 0 to 100 (0 no effect, 100 complete control)
# Outline: (§2)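 Visual ratings from 0, meaning no effect, to 100, meaning complete control, were assigned against untreated controls 13 to 14 days after compounds were added to the floodwater of pots kept 3 cm deep, with plants at the 2-leaf stage.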
# foxtail, giant [4] = assay: Test C postemergence; format: in vivo, Setaria faberi; conditions: 10 days, 0 to 100 scale (0 no effect, 100 complete control)
# Outline: as §1
# sedge, umbrella = assay: Test D flooded paddy test; format: in vivo, Cyperus difformis; conditions: 250 g ai/ha, applied to paddy water, visual rating after 13 to 14 days, scale 0 to 100 (0 no effect, 100 complete control)
# Outline: as §2
# wheat [5] = assay: Test C postemergence; format: in vivo, Triticum aestivum; conditions: 10 days, 0 to 100 scale (0 no effect, 100 complete control)
# Outline: as §1
# ragweed [6] = assay: Test C postemergence; format: in vivo, Ambrosia artemisiifolia; conditions: 10 days, 0 to 100 scale (0 no effect, 100 complete control)
# Outline: as §1
# blackgrass [7] = assay: Test C postemergence; format: in vivo, Alopecurus myosuroides; conditions: 10 days, 0 to 100 scale (0 no effect, 100 complete control)
# Outline: as §1
# oat, wild [8] = assay: Test C postemergence; format: in vivo, Avena fatua; conditions: 10 days, 0 to 100 scale (0 no effect, 100 complete control)
# Outline: as §1
# soybean [9] = assay: Test C preemergence; format: in vivo, Glycine max
# Outline: as §1
# pigweed, palmer [10] = assay: Test C postemergence; format: in vivo, Amaranthus palmeri; conditions: 10 days, 0 to 100 scale (0 no effect, 100 complete control)
# Outline: as §1
# wheat [11] = assay: Test C preemergence; format: in vivo, Triticum aestivum
# Outline: as §1
# barnyardgrass [12] = assay: Test C postemergence; format: in vivo, Echinochloa crusgalli; conditions: 10 days, 0 to 100 scale (0 no effect, 100 complete control)
# Outline: as §1
# kochia [13] = assay: Test C postemergence; format: in vivo, Bassia scoparia; conditions: 10 days, 0 to 100 scale (0 no effect, 100 complete control)
# Outline: as §1
# oat, wild [14] = assay: Test C preemergence; format: in vivo, Avena fatua
# Outline: as §1
# ryegrass, Italian [15] = assay: Test C postemergence; format: in vivo, Lolium multiflorum; conditions: 10 days, 0 to 100 scale (0 no effect, 100 complete control)
# Outline: as §1
# rice = assay: Test D flooded paddy test; format: in vivo, Oryza sativa; conditions: 250 g ai/ha, applied to paddy water, visual rating after 13 to 14 days, scale 0 to 100 (0 no effect, 100 complete control)
# Outline: as §2
# blackgrass [16] = assay: Test C preemergence; format: in vivo, Alopecurus myosuroides
# Outline: as §1
# foxtail, giant [17] = assay: Test C preemergence; format: in vivo, Setaria faberi
# Outline: as §1
# ragweed [18] = assay: Test C preemergence; format: in vivo, Ambrosia artemisiifolia
# Outline: as §1
# galium = assay: Test C postemergence; format: in vivo, Galium aparine; conditions: 10 days, 0 to 100 scale (0 no effect, 100 complete control)
# Outline: as §1
# soybean [19] = assay: Test C postemergence; format: in vivo, Glycine max; conditions: 10 days, 0 to 100 scale (0 no effect, 100 complete control)
# Outline: as §1
# corn [20] = assay: Test C postemergence; format: in vivo, Zea mays; conditions: 10 days, 0 to 100 scale (0 no effect, 100 complete control)
# Outline: as §1
# kochia [21] = assay: Test C preemergence; format: in vivo, Bassia scoparia
# Outline: as §1
# horseweed = assay: Test C postemergence; format: in vivo, Erigeron canadensis; conditions: 10 days, 0 to 100 scale (0 no effect, 100 complete control)
# Outline: as §1
# pigweed, palmer [22] = assay: Test C preemergence; format: in vivo, Amaranthus palmeri
# Outline: as §1
# ducksalad = assay: Test D flooded paddy test; format: in vivo, Heteranthera limosa; conditions: 250 g ai/ha, applied to paddy water, visual rating after 13 to 14 days, scale 0 to 100 (0 no effect, 100 complete control)
# Outline: as §2
# corn [23] = assay: Test C preemergence; format: in vivo, Zea mays
# Outline: as §1
# [24] = 500 g ai/ha, preemergence, 0 to 100 scale (0 no effect, 100 complete control)
# [25] = Preemergence, 125 g ai/ha, 0 to 100 scale, 0 no effect, 100 complete control
smiles,measurement,setting,value
CCc1ncn(-c2cc(C(=O)N3CC(C(F)(F)F)Oc4c(C)cccc43)ccn2)n1 (stereo not shown) [Compound 318],Barnyardgrass plant response rating,barnyardgrass [1]; [24],100
same,"Plant response rating, Barnyardgrass",barnyardgrass [1]; [25],90
same,"Ryegrass, Italian plant response rating","ryegrass, Italian [2]; [24]",100
same,"Plant response rating, Ryegrass, Italian","ryegrass, Italian [2]; [25]",90
same,"Plant response rating, Barnyardgrass (Flood)",barnyardgrass [3],45
same,"Plant response rating, Foxtail, Giant","foxtail, giant [4]; 500 g ai/ha, postemergence",90
same,"Plant response rating, Foxtail, Giant","foxtail, giant [4]; Postemergence, 125 g ai/ha",90
same,"Plant response rating, Sedge, Umbrella (Flood)","sedge, umbrella",45
same,"Plant response rating, Wheat","wheat [5]; 500 g ai/ha, postemergence",50
same,"Plant response rating, Wheat","wheat [5]; Postemergence, 125 g ai/ha",40
same,"Plant response rating, Ragweed","ragweed [6]; 500 g ai/ha, postemergence",30
same,"Plant response rating, Ragweed","ragweed [6]; Postemergence, 125 g ai/ha",0
same,"Plant response rating, Blackgrass","blackgrass [7]; 500 g ai/ha, postemergence",90
same,"Plant response rating, Blackgrass","blackgrass [7]; Postemergence, 125 g ai/ha",60
same,"Plant response rating, Oat, Wild","oat, wild [8]; 500 g ai/ha, postemergence",80
same,"Plant response rating, Oat, Wild","oat, wild [8]; Postemergence, 125 g ai/ha",40
same,Soybean plant response rating,soybean [9]; [24],100
same,"Plant response rating, Soybean",soybean [9]; [25],30
same,"Plant response rating, Pigweed, Palmer","pigweed, palmer [10]; 500 g ai/ha, postemergence",60
same,"Plant response rating, Pigweed, Palmer","pigweed, palmer [10]; Postemergence, 125 g ai/ha",20
same,Wheat plant response rating,wheat [11]; [24],90
same,"Plant response rating, Wheat",wheat [11]; [25],30
same,"Plant response rating, Barnyardgrass","barnyardgrass [12]; 500 g ai/ha, postemergence",70
same,"Plant response rating, Barnyardgrass","barnyardgrass [12]; Postemergence, 125 g ai/ha",50
same,"Plant response rating, Kochia","kochia [13]; 500 g ai/ha, postemergence",80
same,"Plant response rating, Kochia","kochia [13]; Postemergence, 125 g ai/ha",50
same,"Oat, Wild plant response rating","oat, wild [14]; [24]",90
same,"Plant response rating, Oat, Wild","oat, wild [14]; [25]",50
same,"Plant response rating, Ryegrass, Italian","ryegrass, Italian [15]; 500 g ai/ha, postemergence",100
same,"Plant response rating, Ryegrass, Italian","ryegrass, Italian [15]; Postemergence, 125 g ai/ha",60
same,"Plant response rating, Rice (Flood)",rice,15
same,Blackgrass plant response rating,blackgrass [16]; [24],90
same,"Plant response rating, Blackgrass",blackgrass [16]; [25],80
same,"Foxtail, Giant plant response rating","foxtail, giant [17]; [24]",100
same,"Plant response rating, Foxtail, Giant","foxtail, giant [17]; [25]",100
same,Ragweed plant response rating,ragweed [18]; [24],40
same,"Plant response rating, Ragweed",ragweed [18]; [25],0
same,"Plant response rating, Galium","galium; 500 g ai/ha, postemergence",100
same,"Plant response rating, Galium","galium; Postemergence, 125 g ai/ha",100
same,"Plant response rating, Soybean","soybean [19]; 500 g ai/ha, postemergence",100
same,"Plant response rating, Soybean","soybean [19]; Postemergence, 125 g ai/ha",100
same,"Plant response rating, Corn","corn [20]; 500 g ai/ha, postemergence",80
same,"Plant response rating, Corn","corn [20]; Postemergence, 125 g ai/ha",70
same,Kochia plant response rating,kochia [21]; [24],90
same,"Plant response rating, Kochia",kochia [21]; [25],70
same,"Plant response rating, Horseweed","horseweed; 500 g ai/ha, postemergence",20
same,"Plant response rating, Horseweed","horseweed; Postemergence, 125 g ai/ha",0
same,"Pigweed, Palmer plant response rating","pigweed, palmer [22]; [24]",90
same,"Plant response rating, Pigweed, Palmer","pigweed, palmer [22]; [25]",50
same,"Plant response rating, Ducksalad (Flood)",ducksalad,10
same,Corn plant response rating,corn [23]; [24],80
same,"Plant response rating, Corn",corn [23]; [25],30
